Assay [1] has as its target Bcl-2-like protein 1 (Homo sapiens, UniProt Q07817). The experiment in a line: Displacement of BODIPY-Bak conjugated peptide from GST-tagged human Wild type Bcl-2-like protein 1 expressed in Escherichia coli BL21 cells at 10 uM after 3 hrs by fluorescence polarization competition assay. (In general: Fluorescence polarisation rises when a labelled molecule tumbles more slowly, as on binding a larger partner.)

Assay [2] addresses Bcl-2-like protein 1 (Homo sapiens, UniProt Q07817, L130G). The experiment in a line: Displacement of BODIPY-Bak conjugated peptide from GST-tagged human Bcl-2-like protein 1 L130G mutant expressed in Escherichia coli BL21 cells at 10 uM after 3 hrs by fluorescence polarization competition assay.
Assay [3] concerns the target Bcl-2-like protein 1 (Homo sapiens, UniProt Q07817, L130V). Nature of the assay: Displacement of BODIPY-Bak conjugated peptide from GST-tagged human Bcl-2-like protein 1 L130V mutant expressed in Escherichia coli BL21 cells at 10 uM after 3 hrs by fluorescence polarization competition assay.
Another assay deals with T1, Bcl-2-like protein 2 (Homo sapiens, UniProt Q92843).
T1 sequence (Q92843 whole entry): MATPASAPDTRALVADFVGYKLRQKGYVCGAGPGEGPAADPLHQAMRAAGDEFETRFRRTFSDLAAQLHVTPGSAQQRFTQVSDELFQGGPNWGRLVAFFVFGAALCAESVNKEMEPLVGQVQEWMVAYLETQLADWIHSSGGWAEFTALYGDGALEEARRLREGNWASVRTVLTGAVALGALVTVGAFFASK
Nature of the assay: Displacement of BODIPY-Bak conjugated peptide from GST-tagged human wild type Bcl-W expressed in Escherichia coli BL21 cells at 10 uM after 3 hrs by fluorescence polarization competition assay.

Assay [4] concerns the target Induced myeloid leukemia cell differentiation protein Mcl-1 homolog (Mus musculus, UniProt P97287). Nature of the assay: Displacement of BODIPY-Bak conjugated peptide from GST-tagged mouse wild type MCL1 expressed in Escherichia coli BL21 cells at 10 uM after 3 hrs by fluorescence polarization competition assay.

In general, Ki refers to a dissociation constant, usually derived from enzyme kinetics or from competition with a known ligand. High values mean a looser hold on the target, low ones a stronger hold on the target.

Sequence of Bcl-2-like protein 1 (Homo sapiens, UniProt Q07817) (Q07817 whole entry): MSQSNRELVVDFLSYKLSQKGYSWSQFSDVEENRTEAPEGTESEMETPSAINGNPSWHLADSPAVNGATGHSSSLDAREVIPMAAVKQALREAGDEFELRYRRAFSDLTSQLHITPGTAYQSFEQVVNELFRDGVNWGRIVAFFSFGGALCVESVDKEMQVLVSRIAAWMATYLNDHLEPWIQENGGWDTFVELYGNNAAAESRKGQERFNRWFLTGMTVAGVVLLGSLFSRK
Sequence of Bcl-2-like protein 1 (Homo sapiens, UniProt Q07817, L130V) (Q07817 whole entry L130V): as the sequence (Q07817 whole entry) above, with L130V counted along it
Sequence of Bcl-2-like protein 1 (Homo sapiens, UniProt Q07817, L130G) (Q07817 whole entry L130G): as the sequence (Q07817 whole entry) above, with L130G counted along it
Sequence of Induced myeloid leukemia cell differentiation protein Mcl-1 homolog (P97287 whole entry): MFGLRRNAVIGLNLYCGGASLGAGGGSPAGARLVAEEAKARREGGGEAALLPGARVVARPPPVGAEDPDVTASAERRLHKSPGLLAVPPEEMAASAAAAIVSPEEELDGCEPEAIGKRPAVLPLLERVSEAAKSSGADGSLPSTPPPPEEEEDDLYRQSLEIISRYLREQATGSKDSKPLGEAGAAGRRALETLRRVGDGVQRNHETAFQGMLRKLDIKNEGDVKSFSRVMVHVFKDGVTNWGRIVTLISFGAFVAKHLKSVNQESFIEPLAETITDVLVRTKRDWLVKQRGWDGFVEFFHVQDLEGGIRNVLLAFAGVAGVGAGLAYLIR

For `C[C@H]1CN(c2ccc(C(=O)NS(=O)(=O)c3ccc(N[C@H](CCN(C)C)CSc4ccccc4)c([N+](=O)[O-])c3)cc2)CCN1Cc1ccccc1C(F)(F)F`, the Ki was under 1 nM at Bcl-2-like protein 1 [1]; 99 nM at Bcl-2-like protein 1 [2]; under 1 nM on Bcl-2-like protein 1 [3]; 63 nM at Bcl-2-like protein 2; 2000 nM in assay [4].
Take `C[C@@H]1CN(c2ccc(C(=O)NS(=O)(=O)c3ccc(N[C@H](CCN(C)C)CSc4ccccc4)c([N+](=O)[O-])c3)cc2)CCN1Cc1ccccc1C(F)(F)F`: the Ki on Bcl-2-like protein 1 [1] stood at 1 nM; on Bcl-2-like protein 1 [2] it was 81 nM; on Bcl-2-like protein 1 [3], 3.7 nM; on Bcl-2-like protein 2, 55 nM; in assay [4], 1500 nM.
In the case of `CC1CN(c2ccc(C(=O)NS(=O)(=O)c3ccc(N[C@H](CCN(C)C)CSc4ccccc4)c([N+](=O)[O-])c3)cc2)CC(C)N1Cc1ccccc1C(F)(F)F` (stereo not given in full), the Ki at Bcl-2-like protein 1 [1] is 68 nM; at Bcl-2-like protein 1 [2] it was 140 nM; on Bcl-2-like protein 1 [3], 96 nM; on Bcl-2-like protein 2 it was 170 nM; in assay [4], over 10000 nM.
As to `CC(C)[C@H]1CN(Cc2ccccc2C(F)(F)F)CCN1c1ccc(C(=O)NS(=O)(=O)c2ccc(N[C@H](CCN(C)C)CSc3ccccc3)c([N+](=O)[O-])c2)cc1`, the inhibition constant (Ki) at Bcl-2-like protein 1 [1] is 3.3 nM; on Bcl-2-like protein 1 [2] it was 83 nM; at Bcl-2-like protein 1 [3], 63 nM; at Bcl-2-like protein 2 it was 59 nM; in assay [4], 2000 nM.
As for `CC(C)[C@@H]1CN(Cc2ccccc2C(F)(F)F)CCN1c1ccc(C(=O)NS(=O)(=O)c2ccc(N[C@H](CCN(C)C)CSc3ccccc3)c([N+](=O)[O-])c2)cc1`, the Ki on Bcl-2-like protein 1 [1] stood at 2.6 nM; on Bcl-2-like protein 1 [2], 280 nM; at Bcl-2-like protein 1 [3] it was 42 nM; at Bcl-2-like protein 2, 21 nM; in assay [4] it was 2000 nM.
The like results for `CN(C)CC[C@H](CSc1ccccc1)Nc1ccc(S(=O)(=O)NC(=O)c2ccc(N3CCN(Cc4ccccc4C(F)(F)F)CC3)cc2)cc1[N+](=O)[O-]` were, in that order, 3.5 nM, 200 nM, 11 nM, 49 nM and over 10000 nM.

(Values after ChEMBL document CHEMBL1914418, “Biochemical and pharmacological profiling of the pro-survival protein Bcl-xL” (Bioorg Med Chem Lett, 2011).)
